Laboratory results published in BindingDB's records for patent US10188642 (Cancer Research Technology Limited, 2019).

Molecular target: T1, Dual specificity protein kinase TTK (Homo sapiens, UniProt P33981)
T1 sequence (P33981 whole entry): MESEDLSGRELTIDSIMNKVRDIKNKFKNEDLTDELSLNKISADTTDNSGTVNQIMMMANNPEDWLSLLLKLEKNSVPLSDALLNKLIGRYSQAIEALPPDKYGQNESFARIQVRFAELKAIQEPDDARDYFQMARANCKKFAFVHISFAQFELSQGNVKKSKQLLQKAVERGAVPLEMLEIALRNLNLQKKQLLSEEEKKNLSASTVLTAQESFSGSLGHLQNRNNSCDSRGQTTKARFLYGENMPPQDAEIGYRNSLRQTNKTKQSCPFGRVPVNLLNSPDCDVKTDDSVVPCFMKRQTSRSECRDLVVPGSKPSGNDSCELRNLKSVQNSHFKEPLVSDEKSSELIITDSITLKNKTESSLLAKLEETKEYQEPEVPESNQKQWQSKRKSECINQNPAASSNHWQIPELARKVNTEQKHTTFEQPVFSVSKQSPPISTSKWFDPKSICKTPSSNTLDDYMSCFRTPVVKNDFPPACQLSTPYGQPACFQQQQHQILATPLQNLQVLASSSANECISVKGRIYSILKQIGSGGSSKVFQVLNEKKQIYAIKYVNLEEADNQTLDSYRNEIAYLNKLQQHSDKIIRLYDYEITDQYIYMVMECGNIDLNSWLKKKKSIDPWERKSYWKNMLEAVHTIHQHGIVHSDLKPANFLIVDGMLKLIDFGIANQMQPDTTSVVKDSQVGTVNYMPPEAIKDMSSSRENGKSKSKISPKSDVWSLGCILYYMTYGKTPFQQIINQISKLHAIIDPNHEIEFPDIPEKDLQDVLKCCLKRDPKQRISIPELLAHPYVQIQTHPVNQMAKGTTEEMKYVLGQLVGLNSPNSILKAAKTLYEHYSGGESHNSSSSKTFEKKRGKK
Test: Measurement of Inhibition of MPS1 Kinase
Protocol: The reaction was carried out for 60 min at room temperature and stopped by the addition of buffer (10 μl) containing 20 mM EDTA, 0.05% (v/v) Brij-35, in 0.1M HEPES-buffered saline (Free acid, Sigma, UK). […] The % inhibition of the compounds is calculated relative to the means of selected control wells. […] The % inhibitions at each concentration are then fitted to a 4 parameter logistic fit: y=(a+((b−a)/(1+((c/x^d)))) where a=asym min, b=asym max, c=IC50 and d=hill coefficient.

IC50: 3 nM
SMILES: COc1cc(-c2nnc3n2CCN(C(=O)CC(C)(C)C)C3)ccc1Nc1cc2cc(-c3cnn(CC(C)(C)O)c3)ccc2cn1 [US10188642, Example 55]
